Test results taken from patent US9802976B2, “Method for preparing substituted 3,7-dihydroxy steroids” (NeurMedix, Inc., priority 2008, dated 2017).
Marks after values point to notes of the source that are not given here.

Legend:
[1] = target: T1, ERα (Homo sapiens, UniProt P03372); experiment: Estrogen receptor binding assay (fluorescence polarization competition), ERα
T1 construct: bacculovirus expressed, full length human 2.8 pmol/μL ERα was used as reagent; purchased PanVera; host or cells: baculovirus expression system

[2] = target: T2, ERβ (Homo sapiens, UniProt Q92731); experiment: Estrogen receptor binding assay (fluorescence polarization competition), ERβ
T2 construct: Assay reagents used were bacculovirus expressed, full length human ERβ; purchased PanVera; host or cells: baculovirus expression system
Procedure: (§1) Estrogen receptor binding assay: A suitable example system is an estrogen receptor-kit manufactured by PanVera for ERIβ, which contains recombinant estrogen receptor β ligand, FLUORMONE™ ES2 (ES2), a fluorescently labeled estrogen ligand, and appropriate buffer. […] When bound to ERβ, ES2 tumbles slowly and has a high fluorescence polarization value.
(§2) The competition assay was conducted according to the manufacturer's protocol (Lit. No. L0712, Rev. 10/03). Assay reagents used were bacculovirus expressed, full length human ERβ […] in 50 mM Bis-Tris Propane (pH=9), 400 mM KCl, 2 mM DTT, 1 mM EDTA, 10% glycerol, ES2 400 nM in methanol and E2 screening buffer consisting of 100 mM potassium phosphate (pH=7.4), 100 μg/mL BGG, 0.02% NaN3. The ES2-ERβ complex was formed with 20 μL 20 nM ERβ (0.020 pmol/μL) and 20 μL 2 nM ES2 (0.002 pmol/μL). Positive control (estrogen) solution was prepared using 20 μL of a 1.0 mM stock solution in DMSO and 80 μL DMSO. In a first dilution, 50 μL of this solution is added to 50 μL of DMSO, which is followed by dilutions in 2-fold increments, to provide for a 14 point dilution curve. In a second dilution, to 4 μL of each DMSO solution from the first dilution is added 400 μL of ES2 screening buffer. […] Fluorescence polarization values are obtained using 485 nm excitation and 530 nm emission interference filters. […]

[3] = system: estrogen receptors; experiment: Binding capacity of impurities to estrogen receptors; set-up: species or system human; conditions: impurities in Compound 1 from Process A, Route 1 after recrystallization; directly or from the product after ester hydrolysis
Procedure: as §1, §2

[4] = system: nuclear sex steroid receptors; experiment: Binding activity at nuclear sex steroid receptors; conditions: essentially free defined in b31 as Ki>10 μM
Description: The term “binding activity” refers to the ability of a specified compound, a preparation comprising Compound 1 or impurity (or impurities) in a preparation of Compound 1 to bind to or associate with a receptor, typically a sex steroid receptor such as an androgen receptor or an estrogen receptor to effect or modulate the receptor's biological activity. Binding is usually measured in assays as the capacity of a compound, usually an impurity in a preparation comprising Compound 1, to displace a physiologically relevant ligand of a receptor (i.e., reference ligand) that is bound to that receptor in a competition assay. The reference ligand is typically a natural ligand of the receptor or an agonist of the receptor that has been labeled with a radioactive or spectroscopic probe whose presence may be queried by scintillation counting or by a spectroscopic method such as fluorescence emission or fluorescence polarization.
The radioactive probe is typically ^3H and/or ^14C, where radioactive atom(s) have replaced one or more of atoms of the ligand at positions where loss of the radiolabel would not occur to an extent under conditions of the assay that would complicate or confound interpretation of the assay results. […]

[5] = Estrogenic effects seen with Compound 1 prepared by Process A; conditions: Compound 1 preparation made by Process A, Route 1 (contains 17α-ethynyl-androst-5-ene-3β,17β-diol impurity)
[6] = Compound 1 essentially free of the 3β,17β-diol impurity, tested to 10 μM

T1 sequence (P03372 whole entry): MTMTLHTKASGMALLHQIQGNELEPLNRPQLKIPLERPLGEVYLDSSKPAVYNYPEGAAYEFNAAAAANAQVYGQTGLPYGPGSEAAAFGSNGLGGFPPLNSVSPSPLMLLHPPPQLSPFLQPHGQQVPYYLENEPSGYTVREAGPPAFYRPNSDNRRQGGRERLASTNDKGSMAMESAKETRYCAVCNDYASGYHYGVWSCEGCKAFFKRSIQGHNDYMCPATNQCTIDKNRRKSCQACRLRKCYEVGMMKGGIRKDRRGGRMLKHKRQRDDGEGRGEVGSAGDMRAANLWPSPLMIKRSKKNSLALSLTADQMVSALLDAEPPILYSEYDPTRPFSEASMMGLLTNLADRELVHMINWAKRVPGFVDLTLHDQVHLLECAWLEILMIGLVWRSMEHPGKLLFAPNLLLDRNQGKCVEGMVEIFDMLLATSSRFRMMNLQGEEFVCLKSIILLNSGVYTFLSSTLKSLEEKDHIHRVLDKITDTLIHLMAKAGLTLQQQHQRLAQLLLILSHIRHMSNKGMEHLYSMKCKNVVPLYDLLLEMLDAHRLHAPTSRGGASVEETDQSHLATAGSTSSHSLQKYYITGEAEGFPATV
T2 sequence (Q92731 whole entry): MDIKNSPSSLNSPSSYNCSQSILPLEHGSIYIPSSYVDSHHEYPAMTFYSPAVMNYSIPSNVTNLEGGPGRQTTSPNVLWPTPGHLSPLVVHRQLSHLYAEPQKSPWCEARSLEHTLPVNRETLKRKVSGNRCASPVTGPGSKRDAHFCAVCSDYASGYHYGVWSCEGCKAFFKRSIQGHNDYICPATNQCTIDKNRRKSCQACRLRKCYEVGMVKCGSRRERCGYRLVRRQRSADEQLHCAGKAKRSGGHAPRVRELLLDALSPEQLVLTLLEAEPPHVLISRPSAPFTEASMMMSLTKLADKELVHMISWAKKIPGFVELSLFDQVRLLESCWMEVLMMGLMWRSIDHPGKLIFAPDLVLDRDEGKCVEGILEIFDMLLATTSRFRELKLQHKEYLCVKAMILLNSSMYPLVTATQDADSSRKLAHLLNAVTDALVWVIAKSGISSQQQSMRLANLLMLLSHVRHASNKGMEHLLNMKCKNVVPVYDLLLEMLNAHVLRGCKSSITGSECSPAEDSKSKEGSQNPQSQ

Structure (SMILES) | binding activity at the estrogen receptor ERα ([1]; receptor binding studies) | binding activity at the estrogen receptor ERβ ([2]; receptor binding studies) | binding capacity to estrogen receptors [3] | activity at the estrogen receptor ERα [1, 6] | activity at the estrogen receptor ERβ [2, 6] | binding activity at nuclear sex steroid receptors [4] | estrogenic effects [5]
C#CC1(O)CCC2C3CC=C4CC(O)CCC4(C)C3CCC21C (stereo not drawn) [17α-ethynyl-androst-5-ene-3β,17β-diol] | significant binding activity | significant binding activity | 0.61** | – | – | – | –
C#CC1(O)CCC2C3CC=C4CC(OC(C)=O)CCC4(C)C3CCC21C (stereo not drawn) [17α-ethynyl-3β-acetoxy-androst-5-ene-17β-diol] | – | – | 0.05** | – | – | – | –
C#C[C@@]1(O)CC[C@H]2[C@@H]3[C@@H](O)C=C4C[C@H](O)CC[C@]4(C)[C@H]3CC[C@@]21C [Compound 1, 17-Ethynyl-10R,13S-dimethyl 2,3,4,7,8R,9S,10,11,12,13,14S,15,16,17-hexadecahydro-1H-cyclopenta[a]phenanthrene-3R,7R,17S-triol] | – | – | – | no activity | no activity | essentially free of binding activity | estrogenic effects
